Data reported in patent US6251948A, “Tri-and tetra-substituted guanidines and their use as excitatory amino acid antagonists” (State of Oregon, acting by and through the Oregon State …, priority 1995, dated 2001).
Structures can show the parent of a compound that is named as a salt.

Columns and labels:
[1] = test system: lesions caused by NMDA injection; assay: In vivo neurotoxicity assay: NMDA-induced lesion (model of McDonald et al.); parameters: species or system rat; settings: 0.1 to 100 umol/kg of body weight; intraperitoneal, 15 minutes following cerebral NMDA injection
Source text: In the in vivo neurotoxicity studies, the experimental model of McDonald, J. W., et al., (In: Sigma and Phencyclidine-like Compounds as Molecular Probes in Biology, Ed. Domino, E. F., and Kamenka, J.-M., pp. 697-707 (1988), NPP Books, Ann Arbor, Mich.) can be employed. In this model, an NMDA injection into one cerebral hemisphere of a rat pup causes brain injury which resembles the lesion produced by hypoxia-ischemia. The ability of test compounds to limit the NMDA-induced lesion is a measure of their neuroprotective properties; and, since the compounds are administered intraperitoneally, the model also provides information about a compound's ability to cross the blood-brain barrier.
The experimental model of McDonald, J. W., et al., supra, was employed with the single alteration in protocol of an intraperitoneal injection of the test compound 15 minutes following, rather than preceding, the cerebral NMDA injection.

sigma brain receptor = settings: Weber et al. 1986; U.S. Pat. No. 4,709,094; cited from earlier work
Korsakoff's disease = settings: pretreatment; rat model; cited from earlier work

**Q.** Which “protection against the lesions caused by NMDA injection” value [1] does the source give for CCc1cccc(N(C)C(=N)Nc2cccc3ccccc23)c1 [Compound VII, N-(1-Naphthyl)-N'-(m-ethylphenyl)-N'-methylquanidine Hydrochloride] here?
**A.** protect against the lesions caused by NMDA injection

**Q.** Which “selectivity for the sigma receptor” value (sigma brain receptor) does the source give for Cc1ccccc1NC(=N)Nc1ccccc1C [DTG, 1,3 di-o-tolyl-guanidine] here?
**A.** strong selectivity for the sigma receptor

**Q.** Which “extent of cell loss, hemorrhages and amino acid changes” value (Korsakoff's disease) does the source give for C[C@]12N[C@H](Cc3ccccc31)c1ccccc12 [MK-801, (+)-5-methyl-10,11-dihydro-5H-dibenzo[a,d]cycloheptene-5,10-imine] here?
**A.** markedly attenuates the extent of cell loss, hemorrhages and amino acid changes
